From publication PMC8956739, “A synthetic lipopeptide targeting top-priority multidrug-resistant Gram-negative pathogens” (Nature Communications, 2022)
In brackets after ≈: the same amount, converted by molar mass. Several values for one entry are separate records, joined by “and”; a condition that tells them apart may be missing. Equal values may be shown once. Read-outs that look alike come from different tables or passages of the source. Residues, ends and D or L forms follow the SMILES beside them.

What was measured:
P. aeruginosa ATCC 27853 [1] = test: Neutropenic mouse bloodstream infection model; assay type: in vivo; details: single IV dose 4 mg/kg
Procedure: The experimental methodology for the neutropenic mouse bloodstream infection model was described previously. Briefly, 7-week-old female Swiss mice (22–28 g) were rendered neutropenic by intraperitoneal administration of cyclophosphamide, 4 days (150 mg/kg) and 1 day (100 mg/kg) prior to inoculation. Bloodstream infection was established by intravenous administration of a 50 µL bolus of early log-phase bacterial suspension (4 × 10^8 CFU/mL). Lipopeptide solutions were prepared at 1 mg/mL (free base) in sterile saline. At 2 h after inoculation, mice (n = 3) were injected intravenously with lipopeptide solution at 4 mg/kg (free base) or saline control. At 0 and 4 h after administration, blood was collected, diluted serially in sterile saline, and plated on nutrient agar plates. Agar plates were incubated at 37 °C overnight for bacterial colony counting and the bacterial load in the blood (log10 CFU/mL) in each mouse was calculated. In vivo efficacy was calculated as the difference of the log10 CFU/mL blood values between the treated mice and the saline-treated mice at 4 h post dosing (Δlog10 CFU/mL blood = log10 [treated] CFU/mL blood − log10[control] CFU/mL blood).

Swiss mice, kidney = test: Nephrotoxicity in mice (kidney histopathology); assay type: in vivo, mouse; details: for Kidney histopathology (SQS Score): 72 mg/kg/d subcutaneously in six divided doses every 2 h, n = 3; for Kidney histopathology, mice with the SQS score: mouse, in vivo
Procedure: The experimental methodology has been previously reported by our group. Briefly, individual lipopeptide solutions were prepared in sterile saline (6 mg/mL). Swiss mice (female, 7-week-old, 22–28 g) were subcutaneously administered at 12 mg/kg in, 6 doses every 2 h to reach a total dose of 72 mg/kg (n = 3). For high-dose nephrotoxicity experiments, mice were intraperitoneally administered at 20 or 25 mg/kg, in 6 doses every 2 h to reach a total dose of 120 mg/kg (n = 6) or 150 mg/kg (n = 3). At 20 h after the last dose, the right kidney from each mouse was collected and placed in 10% buffered (pH 7.4) formalin (Sigma-Aldrich, Castle Hill, NSW, Australia). The kidneys were subjected to histological examination at the Australian Phenomics Network-Histopathology and Organ Pathology (University of Melbourne, Parkville, VIC, Australia), who was blind to the treatment groups.

A. baumannii ATCC 19606 = assay type: cell-based, Acinetobacter baumannii
Procedure: (§1) MICs were determined in cation-adjusted Mueller–Hinton broth (CaMHB) by the broth micro-dilution method against ATCC strains and clinical isolates. MICs in the presence of Survanta® were determined as described above against P. aeruginosa ATCC 27853. In the 100 μL of fresh CaMHB containing polymyxins, 10% Survanta® (v/v, 2.5 mg/mL phospholipids) was added. MICs in the presence and absence of Survanta® were compared to determine the effect of binding to lung surfactant on the antibacterial activity of polymyxins.

A. baumannii FADDI-AB030 = assay type: cell-based, Acinetobacter baumannii
Procedure: as §1

A. baumannii FADDI-AB034 = assay type: cell-based, Acinetobacter baumannii
Procedure: as §1

P. aeruginosa ATCC 27853 [2] = assay type: cell-based, Pseudomonas aeruginosa
Procedure: as §1

[3] = tested on: P. aeruginosa FADDI-PA025; assay type: cell-based, Pseudomonas aeruginosa
Procedure: as §1

[4] = tested on: P. aeruginosa FADDI-PA038; assay type: cell-based, Pseudomonas aeruginosa
Procedure: as §1

[5] = tested on: K. pneumoniae FADDI-KP032; assay type: cell-based, Klebsiella pneumoniae
Procedure: as §1

[6] = tested on: K. pneumoniae FADDI-KP065; assay type: cell-based, Klebsiella pneumoniae
Procedure: as §1

Row | SMILES | Kidney histopathology (SQS Score) (Swiss mice, kidney) | Kidney histopathology, mice with the SQS score (Swiss mice, kidney) | MIC A. baumannii ATCC 19606 (A. baumannii ATCC 19606; ATCC 19606) [µg/mL] | MIC A. baumannii FADDI-AB030 (A. baumannii FADDI-AB030; FADDI-AB030) [µg/mL] | MIC A. baumannii FADDI-AB034 (A. baumannii FADDI-AB034; FADDI-AB034) [µg/mL] | MIC P. aeruginosa ATCC 27853 (P. aeruginosa ATCC 27853 [2]; ATCC 27853) [µg/mL] | MIC, No Survanta (P. aeruginosa ATCC 27853 [2]; ATCC 27853) [µg/mL] | MIC P. aeruginosa FADDI-PA025 ([3]; FADDI-PA025) [µg/mL] | MIC P. aeruginosa FADDI-PA038 ([4]; FADDI-PA038) [µg/mL] | MIC K. pneumoniae FADDI-KP032 ([5]; FADDI-KP032) [µg/mL] | MIC K. pneumoniae FADDI-KP065 ([6]; FADDI-KP065) [µg/mL] | also measured
1 | CCCCCCCC(=O)N[C@@H](CCN)C(=O)N[C@H](C(=O)N[C@@H](CN)C(=O)N[C@H]1CCNC(=O)[C@H]([C@@H](C)O)NC(=O)[C@H](CCN)NC(=O)[C@H](CCN)NC(=O)[C@H]([C@@H](C)O)NC(=O)[C@@H](CC(C)C)NC(=O)[C@H](CCN)NC1=O)[C@@H](C)O [Lipopeptide F251] (HELM PEPTIDE1{[CCCCCCCC(=O)[*:2]].[Dab].T.[NC[C@H](N[*:1])C(=O)[*:2]].[Dab].[Dab].[dL].T.[Dab].[Dab].T}$PEPTIDE1,PEPTIDE1,5:R3-11:R2$$$V2.0) | 0 (SQS 0 = no significant change (overall score, <1)) | 3/3 | 0.5 (≈ 0.443 µM) | 0.25 (≈ 0.221 µM) | 0.25 (≈ 0.221 µM) | 0.5 (≈ 0.443 µM) | 0.5 (≈ 0.443 µM) | 8 (≈ 7.08 µM) | 0.5 (≈ 0.443 µM) | <0.125 | <0.125 | Log10 CFU/mL blood at 4 h, Mean (P. aeruginosa ATCC 27853 [1]; 4 h): 5.87 Log10 CFU/mL blood; Δlog10 CFU/mL blood (mean) (P. aeruginosa ATCC 27853 [1]; 4 h, treated minus control, mean of replicates, 4 mg/kg): −1.57 log10 CFU/mL blood; Log10 CFU/mL blood at 4 h, single mouse (P. aeruginosa ATCC 27853 [1]; 4 h, 4 mg/kg): 6.12 Log10 CFU/mL blood and 5.83 Log10 CFU/mL blood and 5.67 Log10 CFU/mL blood; Delta Log10 CFU/mL blood at 4 h, single mouse (P. aeruginosa ATCC 27853 [1]; treated mouse minus mean of vehicle mice, 4 mg/kg): -1.33 Log10 CFU/mL blood and -1.61 Log10 CFU/mL blood and -1.78 Log10 CFU/mL blood; impact of lung surfactant on MIC (P. aeruginosa ATCC 27853 [2]; 10% Survanta vs none): slightly impacted
2 | CCCCCCCC(=O)N[C@@H](CCN)C(=O)N[C@H](C(=O)N[C@@H](CCN)C(=O)N[C@H]1CCNC(=O)[C@H]([C@@H](C)O)NC(=O)[C@H](CCN)NC(=O)[C@H](CCN)NC(=O)[C@H]([C@@H](C)O)NC(=O)[C@@H](C(C)C)NC(=O)[C@H](CCN)NC1=O)[C@@H](C)O [Lipopeptide F229] (HELM PEPTIDE1{[CCCCCCCC(=O)[*:2]].[Dab].T.[Dab].[Dab].[Dab].[dV].T.[Dab].[Dab].T}$PEPTIDE1,PEPTIDE1,5:R3-11:R2$$$V2.0) | 0 (SQS 0 = no significant change (overall score, <1)) | 3/3 | >32 | 32 (≈ 28.3 µM) | >32 | >32 |  | >32 | >32 | 1 (≈ 0.885 µM) | 2 (≈ 1.77 µM) | 
3 | CCCCCCCC(=O)N[C@@H](CCN)C(=O)N[C@H](C(=O)N[C@H](CO)C(=O)N[C@H]1CCNC(=O)[C@H]([C@@H](C)O)NC(=O)[C@H](CCN)NC(=O)[C@H](CCN)NC(=O)[C@H]([C@@H](C)O)NC(=O)[C@@H](CC(C)C)NC(=O)[C@H](CCN)NC1=O)[C@@H](C)O [Lipopeptide F183] (HELM PEPTIDE1{[CCCCCCCC(=O)[*:2]].[Dab].T.[dS].[Dab].[Dab].[dL].T.[Dab].[Dab].T}$PEPTIDE1,PEPTIDE1,5:R3-11:R2$$$V2.0) | 0 (SQS 0 = no significant change (overall score, <1)) | 3/3 | 1 (≈ 0.885 µM) | <0.125 | 0.25 (≈ 0.221 µM) | 4 (≈ 3.54 µM) | 4 (≈ 3.54 µM) | >32 | 4 (≈ 3.54 µM) | <0.125 | 0.25 (≈ 0.221 µM) | 
4 | CC[C@@H]1NC(=O)[C@@H](CC(C)C)NC(=O)[C@H](CCN)NC(=O)[C@@H](NC(=O)[C@H](CN)NC(=O)[C@@H](NC(=O)[C@H](CCN)NC(=O)c2ccccc2Cl)[C@@H](C)O)CCNC(=O)[C@H]([C@@H](C)O)NC(=O)[C@H](CCN)NC(=O)[C@H](CCN)NC1=O [Lipopeptide F350] (HELM PEPTIDE1{[O=C(c1ccccc1Cl)[*:2]].[Dab].T.[NC[C@H](N[*:1])C(=O)[*:2]].[Dab].[Dab].[dL].[Abu].[Dab].[Dab].T}$PEPTIDE1,PEPTIDE1,5:R3-11:R2$$$V2.0; bridges inferred) |  |  |  |  |  |  |  |  |  |  |  | MIC A. baumannii ATCC 19606 (A. baumannii ATCC 19606): 8 µg/mL (≈ 7.11 µM); MIC A. baumannii FADDI-AB030 (A. baumannii FADDI-AB030; carbapenem-resistant isolate): 4 µg/mL (≈ 3.55 µM); MIC A. baumannii FADDI-AB034 (A. baumannii FADDI-AB034; carbapenem-resistant isolate): 4 µg/mL (≈ 3.55 µM); MIC P. aeruginosa ATCC 27853 (P. aeruginosa ATCC 27853 [2]): 0.5 µg/mL (≈ 0.444 µM); MIC, 10% Survanta (P. aeruginosa ATCC 27853 [2]; P. aeruginosa ATCC 27853, 10% Survanta): 0.5 µg/mL (≈ 0.444 µM); MIC, No Survanta (P. aeruginosa ATCC 27853 [2]; P. aeruginosa ATCC 27853, no surfactant): 0.5 µg/mL (≈ 0.444 µM); MIC P. aeruginosa FADDI-PA025 ([3]; MDR clinical isolate): 4 µg/mL (≈ 3.55 µM); MIC P. aeruginosa FADDI-PA038 ([4]; carbapenem-resistant isolate): 2 µg/mL (≈ 1.78 µM); MIC K. pneumoniae FADDI-KP032 ([5]; carbapenem-resistant isolate): 1 µg/mL (≈ 0.888 µM); MIC K. pneumoniae FADDI-KP065 ([6]; carbapenem-resistant isolate): 0.5 µg/mL (≈ 0.444 µM)
5 | CCCCCCCC(=O)N[C@@H](CCN)C(=O)N[C@H](C(=O)N[C@@H](CCN)C(=O)N[C@H]1CCNC(=O)[C@H]([C@@H](C)O)NC(=O)[C@H](CCN)NC(=O)[C@H](CCN)NC(=O)[C@H]([C@@H](C)O)NC(=O)[C@@H]([C@H](C)O)NC(=O)[C@H](CCN)NC1=O)[C@@H](C)O [Lipopeptide F230] (HELM PEPTIDE1{[CCCCCCCC(=O)[*:2]].[Dab].T.[Dab].[Dab].[Dab].[dT].T.[Dab].[Dab].T}$PEPTIDE1,PEPTIDE1,5:R3-11:R2$$$V2.0) | 0 (SQS 0 = no significant change (overall score, <1)) | 3/3 | >32 | >32 | >32 | >32 |  | >32 | >32 | 16 (≈ 14.1 µM) | 32 (≈ 28.3 µM) | 
